Experiment [1] deals with T1, P2X7 (Homo sapiens (Human), UniProt Q99572). The experiment can be described thus: Radioligand binding, human P2X7-1321N1 cell membranes, tracer tritiated A-804598. The following applies: Table 3 (additional runs). The protocol: (§1) P2X7 Antagonism in Recombinant Human P2X7 Cells or Recombinant Rat P2X7 Cells: (a) Ca^2+ Flux and (b) Radioligand Binding
On the day of the experiment, cell membrane preparations were made according to standard published methods. […] The compound can be prepared as described in the literature. […] The assay was terminated by filtration (GF/B filters pre-soaked with 0.3% PEI) and washed with washing buffer (Tris-HCl 50 mM). The IC50 generated in the binding assay was corrected for tracer concentration and affinity of the tracer to derive at the affinity (K) of the test compounds. […] Data are analyzed and graphed on Graphpad Prism 5.

Experiment [2] deals with T1, P2X7. Briefly: Ca2+ flux (FLIPR) in 1321N1 cells expressing recombinant human P2X7 channel. Format: cell-based. The following applies: Table 3 (additional runs); 250 μM BzATP. The protocol:
as §1
(§2) (a) Ca^2+ flux: 1321N1 cells expressing the recombinant human or rat P2X7 channel was cultured in HyQ DME/(HyClone/Dulbecco's Modified Eagle Medium) high glucose supplemented with 10% Fetal Bovine Serum (FBS) and appropriate selection marker. Cells were seeded at a density of 25000 cells/well (96-well clear bottom black walled plates) in 100 μl volume/well. On the day of the experiment, cell plates were washed with assay buffer, containing (in mM): 130 NaCl, 2 KCl, 1 CaCl2, 1 MgCl2, 10 HEPES, 5 glucose; pH 7.40 and 300 mOs. After the wash, cells were loaded with the Calcium-4 dye (Molecular Device) and incubated in the dark for 60 minutes. Test compounds were prepared at 250× the test concentration in neat DMSO. Intermediate 96-well compound plates were prepared by transferring 1.2 μL of the compound into 300 μL of assay buffer. A further 3× dilution occurred when transferring 50 μL/well of the compound plate to 100 μL/well in the cell plate. Cells were incubated with test compounds and dye for 30 minutes. […] The fluorescence change was measured 180 seconds after adding the agonist.

For experiment [3], the target named is recombinant rat P2X7 channel (Rattus norvegicus (Rat), UniProt Q64663). The experiment can be described thus: Ca2+ flux (FLIPR) in 1321N1 cells expressing recombinant rat P2X7 channel. The following applies: Table 3 (additional runs); 250 μM BzATP. It counts as cell-based. The protocol:
as §1, §2
(Calcium assays in cells follow changes in intracellular calcium, usually with a dye or a luminescent sensor.)

In experiment [4] the target is T1, P2X7. Briefly: P2X7 antagonism in human peripheral blood mononuclear cells (PBMCs), IL-1β release after LPS + Bz-ATP (ELISA). It counts as cell-based. The following applies: P2X7, Table 3 (additional runs), 10 μM compound, 0.5 mM Bz-ATP, read-out: PBMC 10 μM (% control). On the procedure:
Human blood was collected using a blood donor program. […] Cells were incubated for an additional 1.5 hours. […] Data are analyzed and graphed on Graphpad Prism 5. […] The IC50 for each compound is then uploaded into 3DX.
In general terms: ELISA stands for enzyme-linked immunosorbent assay.

T1 sequence (Q99572 whole entry): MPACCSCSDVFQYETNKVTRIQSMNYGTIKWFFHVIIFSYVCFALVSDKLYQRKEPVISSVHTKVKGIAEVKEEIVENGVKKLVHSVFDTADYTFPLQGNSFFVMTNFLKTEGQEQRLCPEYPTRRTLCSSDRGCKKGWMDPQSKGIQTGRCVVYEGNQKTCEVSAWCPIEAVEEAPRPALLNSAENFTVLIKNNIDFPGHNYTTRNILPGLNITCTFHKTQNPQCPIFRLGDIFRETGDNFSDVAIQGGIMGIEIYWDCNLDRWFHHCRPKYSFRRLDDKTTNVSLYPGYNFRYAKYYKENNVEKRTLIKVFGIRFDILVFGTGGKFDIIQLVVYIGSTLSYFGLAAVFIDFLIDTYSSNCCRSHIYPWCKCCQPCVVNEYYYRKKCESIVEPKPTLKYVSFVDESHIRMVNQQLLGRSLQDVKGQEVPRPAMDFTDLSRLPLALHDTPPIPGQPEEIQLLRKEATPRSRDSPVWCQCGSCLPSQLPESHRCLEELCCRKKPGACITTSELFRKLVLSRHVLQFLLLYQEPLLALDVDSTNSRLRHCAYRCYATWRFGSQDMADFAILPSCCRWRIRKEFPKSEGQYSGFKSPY
recombinant rat P2X7 channel, sequence (Q64663 whole entry): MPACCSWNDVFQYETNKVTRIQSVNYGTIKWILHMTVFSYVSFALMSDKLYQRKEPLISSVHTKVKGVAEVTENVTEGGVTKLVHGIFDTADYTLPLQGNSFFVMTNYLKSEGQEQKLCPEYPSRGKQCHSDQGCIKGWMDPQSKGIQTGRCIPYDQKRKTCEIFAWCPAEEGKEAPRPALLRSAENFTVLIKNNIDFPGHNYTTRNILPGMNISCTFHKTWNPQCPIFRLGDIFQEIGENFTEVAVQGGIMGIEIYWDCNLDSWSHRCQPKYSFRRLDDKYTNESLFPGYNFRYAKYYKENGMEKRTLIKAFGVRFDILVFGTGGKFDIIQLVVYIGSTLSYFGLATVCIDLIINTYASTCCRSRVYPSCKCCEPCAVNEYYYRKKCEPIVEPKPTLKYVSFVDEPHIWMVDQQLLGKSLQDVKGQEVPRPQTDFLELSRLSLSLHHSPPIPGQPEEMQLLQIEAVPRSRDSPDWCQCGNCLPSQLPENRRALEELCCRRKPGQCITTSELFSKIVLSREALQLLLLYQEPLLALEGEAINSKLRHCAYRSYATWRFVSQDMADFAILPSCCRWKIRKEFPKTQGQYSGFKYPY

The compound `Cc1nc2c(c(-c3ccn[nH]3)n1)C[C@H](C)N(C(=O)c1ccc(Cl)cc1F)C2` (single isomer, unassigned) [Example 89, (S*)-(4-chloro-2-fluorophenyl)(2,6-dimethyl-4-(1H-pyrazol-5-yl)-5,6-dihydropyrido[3,4-d]pyrimidin-7(8H)-yl)methanone] gave a Ki at P2X7 [1] of 7.7 nM.
For the compound `COc1cccc(C(=O)N2Cc3nc(C)nc(-c4ccn[nH]4)c3CC2C)c1C` (stereo not shown) [Example 146, (2,6-dimethyl-4-(1H-pyrazol-5-yl)-5,6-dihydropyrido[3,4-d]pyrimidin-7(8H)-yl)(3-methoxy-2-methylphenyl)methanone], the concentration for half-maximal inhibition (IC50) is 1060 nM on P2X7 [2] and greater than 10000 nM in experiment [3]. The remaining activity at 10 µM on P2X7 [4] was -0.8%.

For orientation: Ki means a measure of affinity in units of concentration, obtained from inhibition or displacement. A word on the IC50: it is the concentration that gives 50% inhibition.
